According to US20210087206A1, “MACROCYCLIC KINASE INHIBITORS AND THEIR USE” (TURNING POINT THERAPEUTICS, INC., priority 2017, published 2021):

Experiments:
Assay in all cases: Cell proliferation assay (CellTiter-Glo)
Format in all cases: cell-based
BaF3 EML4-ALK = target: T1, BaF3 EML4-ALK (Homo sapiens, UniProt Q9UM73); conditions: anti-cell proliferation, 72 hours
T1 construct: The EML4-ALK gene (variant 1) was synthesized at GenScript and cloned into pCDH-CMV-MCS-EF1-Puro plasmid (System Biosciences, Inc); fused on or other part: EML4 N-terminal part (variant 1: exons 1-13, with the coiled-coil that oligomerises the fusion) fused to the intracellular part of ALK, which contains the kinase domain; Q9HC35 (Echinoderm microtubule-associated protein-like 4)
T1 sequence (Q9UM73 whole entry, stated change not applied, the tested form may be a part): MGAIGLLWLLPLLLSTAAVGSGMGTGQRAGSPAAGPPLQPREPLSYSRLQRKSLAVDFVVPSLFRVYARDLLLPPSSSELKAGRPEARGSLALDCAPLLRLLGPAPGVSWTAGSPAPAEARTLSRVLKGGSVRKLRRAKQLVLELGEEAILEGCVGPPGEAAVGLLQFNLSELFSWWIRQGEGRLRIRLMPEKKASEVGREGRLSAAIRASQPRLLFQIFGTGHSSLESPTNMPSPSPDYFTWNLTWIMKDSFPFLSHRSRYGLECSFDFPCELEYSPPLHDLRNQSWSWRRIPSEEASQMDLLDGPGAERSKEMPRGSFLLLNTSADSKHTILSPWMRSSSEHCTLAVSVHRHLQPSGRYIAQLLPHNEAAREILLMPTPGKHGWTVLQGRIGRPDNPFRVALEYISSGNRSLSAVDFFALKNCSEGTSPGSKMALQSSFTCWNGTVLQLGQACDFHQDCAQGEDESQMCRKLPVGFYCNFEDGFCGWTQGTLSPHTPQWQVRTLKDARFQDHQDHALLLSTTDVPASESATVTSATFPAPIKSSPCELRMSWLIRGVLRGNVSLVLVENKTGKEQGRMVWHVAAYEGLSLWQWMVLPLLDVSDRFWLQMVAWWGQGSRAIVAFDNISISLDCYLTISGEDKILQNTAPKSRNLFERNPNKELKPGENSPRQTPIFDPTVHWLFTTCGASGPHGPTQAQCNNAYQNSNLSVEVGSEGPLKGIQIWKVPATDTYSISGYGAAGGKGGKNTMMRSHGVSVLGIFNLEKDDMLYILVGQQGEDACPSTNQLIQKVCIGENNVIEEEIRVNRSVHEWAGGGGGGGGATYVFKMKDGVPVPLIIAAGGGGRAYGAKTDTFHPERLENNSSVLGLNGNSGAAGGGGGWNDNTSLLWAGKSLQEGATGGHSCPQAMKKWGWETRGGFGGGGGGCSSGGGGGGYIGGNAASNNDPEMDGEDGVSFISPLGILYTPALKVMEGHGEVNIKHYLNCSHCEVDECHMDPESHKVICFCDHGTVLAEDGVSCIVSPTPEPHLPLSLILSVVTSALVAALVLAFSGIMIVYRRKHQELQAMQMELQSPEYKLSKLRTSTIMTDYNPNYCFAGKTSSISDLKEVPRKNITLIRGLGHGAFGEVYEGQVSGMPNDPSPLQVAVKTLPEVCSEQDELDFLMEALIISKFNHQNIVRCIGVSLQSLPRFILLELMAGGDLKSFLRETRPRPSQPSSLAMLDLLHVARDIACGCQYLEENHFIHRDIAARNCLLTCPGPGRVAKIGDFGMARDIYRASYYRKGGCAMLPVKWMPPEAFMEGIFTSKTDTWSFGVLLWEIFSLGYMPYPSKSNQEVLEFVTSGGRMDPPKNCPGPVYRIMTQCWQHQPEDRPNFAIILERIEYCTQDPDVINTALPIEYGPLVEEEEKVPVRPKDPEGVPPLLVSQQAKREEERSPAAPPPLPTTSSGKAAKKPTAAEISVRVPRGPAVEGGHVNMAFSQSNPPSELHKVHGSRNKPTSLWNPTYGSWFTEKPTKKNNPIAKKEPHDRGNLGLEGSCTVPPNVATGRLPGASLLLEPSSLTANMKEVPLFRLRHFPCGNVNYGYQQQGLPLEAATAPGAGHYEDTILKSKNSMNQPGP
In short: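 Ba/F3 cells were lentivirally transduced with EML4-ALK variant 1 and selected for puromycin resistance and IL-3-independent growth. Proliferation was measured by CellTiter-Glo ATP luminescence to give IC50.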

KG-1 cell (OP2-FGFR1) = conditions: Homo sapiens, anti-cell proliferation, 72 hours
In short: (§1)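 Cells seeded 24 h, then exposed to compounds for 72 h at 37° C., 5% CO2. Proliferation read by CellTiter-Glo luminescent ATP detection; IC50 from dose-response fits.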

KM12 (TPM3-TRKA) = conditions: Homo sapiens, anti-cell proliferation, 72 hours
In short: as §1

Row | Compound | IC50 (BaF3 EML4-ALK) [nM] | IC50 (KG-1 cell (OP2-FGFR1)) [nM] | IC50 (KM12 (TPM3-TRKA)) [nM]
1 | C[C@@H]1COc2cn3ncc4c3nc2N1Cc1cc(F)cnc1O[C@@H]1CC[C@@H](C1)NC4=O [Compound 86, (6S,9R,17R)-13-fluoro-17-methyl-6,7,8,9,17,18-hexahydro-15H-6,9-methano-1,20-(metheno)[1,4]-oxazino[4,3-e]pyrazolo[3,4-h]-pyrido[2,3-b][1,5,7,11]oxatriaza-cyclopentadecin-4(5H)-one] | 7.3 | 2.7 | < 0.2
2 | C[C@@H]1CCOc2cn3ncc4c3nc2N1Cc1cc(F)cnc1O[C@@H](C)CNC4=O [Compound 21, (5R,13S)-9-fluoro-5,13-dimethyl-4,5,14,15-tetrahydro-3H,7H-19,1-(metheno)[1,4]oxazepino[3,4-i]pyrazolo[4,3-f]pyrido[3,2-l][1,4,8,10]oxatriazacyclotridecin-16(13H)-one] | 3000 | 1820 | 0.6
3 | C[C@H]1CNC(=O)c2cnn3cc4c(nc23)N(Cc2cc(F)cnc2O1)[C@H](C1CC1)CO4 [Compound 26, (4R,12S)-4-cyclopropyl-8-fluoro-12-methyl-3,4,13,14-tetrahydro-6H-18,1-(metheno)[1,4]oxazino-[3,4-i]pyrazolo[4,3-f]pyrido-[3,2-l]-[1,4,8,10]oxatriazacyclo-tridecin-15(12H)-one] | 692 | 694 | < 0.2
4 | C[C@@H]1COc2cn3ncc4c3nc2N1Cc1cc(F)cnc1OC[C@@H](O)CNC4=O [Compound 54, (7S,16R)-12-fluoro-7-hydroxy-16-methyl-5,6,7,8,16,17-hexa-hydro-4H,14H-1,19-(metheno)-[1,4]oxazino[4,3-e]pyrazolo-[3,4-h]pyrido[2,3-b][1,5,7,11]-oxatriazacyclotetradecin-4-one] | 661 | 678 | < 0.2
5 | C[C@@H]1COc2cn3ncc4c3nc2N1Cc1cc(F)cnc1OC[C@@H](C(F)F)NC4=O [Compound 97, (4R,13S)-13-(difluoromethyl)-8-fluoro-4-methyl-3,4,13,14-tetra-hydro-6H-18,1-(metheno)[1,4]-oxazino[3,4-i]pyrazolo[4,3-f]pyrido[3,2-l][1,4,8,10]oxatriaza-cyclotridecin-15(12H)-one] | 20.2 | 19.9 | < 0.2
6 | C[C@H]1CNC(=O)c2cnn3cc4c(nc23)N(Cc2cc(F)cnc2O1)C1(CCCC1)CO4 [Compound 57, (12′S)-8′-fluoro-12′-methyl-3′H,6′H,12′H,13′H,14′H,15′H-spiro[cyclopentane-1,4′-[2,11]-dioxa[5,10,14,17,18,19]hexaaza-[18,1](metheno)[1,4]oxazino[3,4-i]pyrazolo[4,3-f]pyrido[3,2-l] [1,4,8,10]oxatriazacyclotridecin]-15′-one] | 2210 | 4000 | < 0.2
7 | C[C@@H]1COc2ncc(F)cc2[C@@H](C)N2c3nc4c(cnn4cc3OC[C@H]2C)C(=O)N1 [Compound 83, (4R,6R,13R)-8-fluoro-4,6,13-trimethyl-3,4,13,14-tetrahydro-6H-18,1-(metheno)[1,4]oxazino[3,4-i]pyrazolo[4,3-f]pyrido[3,2-l][1,4,8,10]oxatriazacyclotridecin-15(12H)-one] | 139 | 30.2 | < 0.2
8 | C[C@@H]1COc2ncc(F)cc2CN2c3nc4c(cnn4cc3OC[C@H]2C2CC2)C(=O)N1 [Compound 25, (4R,13R)-4-cyclopropyl-8-fluoro-13-methyl-3,4,13,14-tetrahydro-6H-18,1-(metheno)[1,4]oxazino[3,4-i]pyrazolo[4,3-f]pyrido[3,2-l][1,4,8,10]oxatriazacyclotridecin-15(12H)-one] | 89.1 | 131 | < 0.2
9 | C[C@H]1COc2cn3ncc4c3nc2N1Cc1cc(F)ccc1OCCNC4=O [Compound 2, (4S)-8-fluoro-4-methyl-3,4,13,14-tetrahydro-6H-18,1-(metheno)[1,4]oxazino[3,4-i]pyrazolo[4,3-f][1,4,8,10]benzoxatriazacyclotridecin-15(12H)-one] | > 10000 | > 10000 | 26.7
10 | C[C@@H]1COc2ncc(F)cc2CN2c3nc4c(cnn4cc3OCC2(C)C)C(=O)N1 [Compound 68, (13R)-8-fluoro-4,4,13-trimethyl-3,4,13,14-tetrahydro-6H-18,1-(metheno)[1,4]oxazino[3,4-i]-pyrazolo[4,3-f]pyrido[3,2-l] [1,4,8,10]oxatriazacyclotridecin-15(12H)-one] | 339 | 5690 | < 0.2
11 | C[C@@H]1COc2cn3ncc4c3nc2N(Cc2cc(F)cnc2OC[C@@H](C)CNC4=O)C1 [Compound 100, (7S,17S)-12-fluoro-7,17-dimethyl-5,6,7,8,17,18-hexahydro-4H,14H,16H-1,20-(metheno)[1,4]oxazepino-[4,3-e]pyrazolo[3,4-h]pyrido-[2,3-b][1,5,7,11]oxatriaza-cyclotetradecin-4-one] | 2500 | 2800 | 72.8
12 | C[C@@H]1COc2cn3ncc4c3nc2N1Cc1cc(F)cnc1OCC1(CC(F)(F)C1)NC4=O [Compound 50, (4′R)-3,3,8′-trifIuoro-4′-methyl-3′H,4′H,6′H,12′H,14′H,15′H-spiro[cyclobutane-1,13′-[2,11]-dioxa[5,10,14,17,18,19]hexaaza-[18,1](metheno)[1,4]oxazino[3,4-i][4,3-f]pyrido[3,2-l][1,4,8,10]-oxatriazacyclotridecin]-15′-one] | 583 | 412 | < 0.2
13 | C[C@H]1CNC(=O)c2cnn3cc4c(nc23)N(Cc2cc(F)ccc2O1)[C@H](CO)CO4 [Compound 12, (4R,12S)-8-fluoro-4-(hydroxymethyl)-12-methyl-3,4,13,14-tetrahydro-6H-18,1-(metheno)[1,4]oxazino[3,4-i]pyrazolo[4,3-f][1,4,8,10]benzoxatriazacyclotridecin-15(12H)-one] | 1460 | 2000 | 0.8
14 | C[C@@H]1COc2ncc(F)cc2CN2c3nc4c(cnn4cc3OC[C@H]2c2ccccc2)C(=O)N1 [Compound 46, (4R,13R)-8-fluoro-13-methyl-4-phenyl-3,4,13,14-tetrahydro-6H-18,1-(metheno)[1,4]oxazino[3,4-i]pyrazolo[4,3-f]pyrido[3,2-1][1,4,8,10]oxatriazacyclotridecin-15(12H)-one] | 1060 | 0.2 | < 0.2
15 | C[C@@H]1CCOc2cn3ncc4c3nc2N1Cc1c(ccc(F)c1Cl)O[C@@H](C)CNC4=O [Compound 23, (5R,13S)-8-chloro-9-fluoro-5,13-dimethyl-4,5,14,15-tetrahydro-3H,7H-19,1-(metheno)[1,4]-oxazepino[3,4-i]pyrazolo[4,3-f] [1,4,8,10]benzoxatriazacyclo-tridecin-16(13H)-one] | 1930 | 9510 | < 0.2
16 | C[C@@H]1COc2cn3ncc4c3nc2N1Cc1cc(F)cnc1OCC(F)(F)CNC4=O [Compound 79, (16R)-7,7,12-trifluoro-16-methyl-5,6,7,8,16,17-hexahydro-4H,14H-1,19-(metheno)[1,4]oxazino[4,3-e]pyrazolo[3,4-h]pyrido[2,3-b][1,5,7,11]oxatriazacyclotetra-decin-4-one] | 31.7 | 9.9 | < 0.2
17 | C[C@@H]1COc2cn3ncc4c3nc2N1Cc1cc(F)cnc1O[C@@H](C)CNC4=O [Compound 8, (4R,12S)-8-fluoro-4,12-dimethyl-3,4,13,14-tetrahydro-6H-18,1-(metheno)[1,4]oxazino[3,4-i]pyrazolo[4,3-f]pyrido[3,2-l][1,4,8,10]oxatriazacyclotridecin-15(12H)-one] | 101 | 77.5 | 0.2
18 | CC[C@@H]1COc2cn3ncc4c3nc2N1Cc1cc(F)cnc1OCC(C)(C)NC4=O [Compound 65, (4R)-4-ethyl-8-fluoro-13,13-dimethyl-3,4,13,14-tetrahydro-6H-18,1-(metheno)[1,4]oxazino[3,4-i]pyrazolo[4,3-f]pyrido[3,2-l][1,4,8,10]oxatriazacyclotridecin-15(12H)-one] | 164 | 42.1 | < 0.2
19 | C[C@@H]1COc2ncc(F)cc2CN2c3nc4c(cnn4cc3OCC[C@H]2C)C(=O)N1 [Compound 22, (5R,14R)-9-fluoro-5,14-dimethyl-4,5,14,15-tetrahydro-3H,7H-19,1-(metheno)[1,4]oxazepino[3,4-i]-pyrazolo[4,3-f]pyrido[3,2-l] [1,4,8,10]oxatriazacyclotridecin-16(13H)-one] | 731 | 784 | < 0.2
20 | C[C@@H]1CCOc2ncc(F)cc2CN2c3nc4c(cnn4cc3OC[C@H]2C)C(=O)N1 [Compound 32, (6R,16R)-12-fluoro-6,16-dimethyl-5,6,7,8,16,17-hexahydro-4H,14H-1,19-(metheno)[1,4]oxazino[4,3-e]pyrazolo[3,4-h]pyrido[2,3-b] [1,5,7,11]oxatriazacyclotetradecin-4-one] | 74.6 | 137 | < 0.2
21 | CC[C@@H]1COc2cn3ncc4c3nc2N1Cc1cc(F)ccc1O[C@@H](C)CNC4=O [Compound 6, (4R,12S)-4-ethyl-8-fluoro-12-methyl-3,4,13,14-tetrahydro-6H-18,1-(metheno)[1,4]oxazino[3,4-i]pyrazolo[4,3-f][1,4,8,10]benzo-xatriazacyclotridecin-15(12H)-one] | 20.6 | 234 | 0.2
